Reference: US6495604B1, “Cycloalkene derivatives, process for producing the same, and use” (Takeda Chemical Industries, Ltd., priority 1998, dated 2002)

tested on: NO production by RAW264.7 cell; experiment: NO production-inhibiting effect in RAW264.7 cells (nitrite ion by DAN fluorescence); format: cell-based, mouse; details: Mus musculus, RAW264.7, RAW264.7; LPS 5 ng/ml + interferon gamma 1 U/ml; nitrite ion in culture supernatant after overnight incubation
Method: Mouse macrophage cell line RAW264.7 was used as an iNOS-inducible cell and a test compound was examined for its % inhibition of NO production. The test compound was dissolved at 10 mM in N,N-dimethylformamide and diluted with an RPMI-1640 medium at the concentration of 0.1 mM. The concentration was further adjusted using the medium so that a final concentration ranging from 10 μM to 10 nM could be obtained by a 10-fold serial dilution and the test compound was added to a culture medium. On the day before the experiment, the cell was adjusted at 5×10^5/ml in an RPMI-1640 medium supplemented with 10% inactivated fetal calf serum and inoculated to a 96-well microplate at 1×10^5 cells/0.2 ml per well. After incubating at 37° C. under an atmosphere of 5% CO2/95% air overnight, the test compound adjusted as described above was added and then LPS and interferon gamma were added at the final concentrations of 5 ng/ml and 1 U/ml, respectively. After further incubating overnight, culture supernatants were examined for the concentration of nitrite ion (stable metabolite of NO) which was used as an index for the NO production. The nitrite ion concentration was determined by adding 25 μl of 20 μg/ml of 2,3-diaminonaphthalene (DAN) to 50 μl of the culture supernatant, followed by incubating at room temperature for 10 minutes, followed by adding 25 μl of 0.5 N NaOH, followed by determining a fluorescence at 450 nm (excitation wavelength: 365 nm). An IC50 represents the concentration of the test compound which inhibits 50% of the NO production.

SMILES | IC50 [µM]
CCOC(=O)C1=CCCCC1S(=O)(=O)N(C)c1ccc(Cl)cc1F (stereo not shown) [Compound 2, ethyl 6-[N-(4-chloro-2-fluorophenyl)-N-methylsulfamoyl]-1-cyclohexene-1-carboxylate] | 1.1
CCOC(=O)C1=CCCCC1S(=O)(=O)Nc1c(C(C)C)cccc1C(C)C (stereo not shown) [Compound 4, ethyl 6-[N-(2,6-diisopropylphenyl)sulfamoyl]-1-cyclohexene-1-carboxylate] | 2.6
CCOC(=O)C1=CCCCC1S(=O)(=O)Nc1ccccc1 (stereo not shown) [Compound 6, ethyl 6-(N-phenylsulfamoyl)-1-cyclohexene-1-carboxylate] | 0.59
CCOC(=O)C1=C(S(=O)(=O)Nc2ccccc2)CCCC1 [Compound 7, ethyl 2-(N-phenylsulfamoyl)-1-cyclohexene-1-carboxylate] | 4
CCOC(=O)C1=C(S(=O)(=O)Nc2ccc(OC)cc2)CCCC1 [Compound 8, ethyl 2-[N-(4-methoxyphenyl)sulfamoyl]-1-cyclohexene-1-carboxylate] | 4.8
CCOC(=O)C1=C(S(=O)(=O)Nc2ccc(Cl)cc2F)CCCC1 [Compound 9, ethyl 2-[N-(4-chloro-2-fluorophenyl)sulfamoyl]-1-cyclohexene-1-carboxylate] | 4.1
CCOC(=O)C1=CCCCC1S(=O)(=O)Nc1ccccc1F (stereo not shown) [Compound 10, ethyl 6-[N-(2-fluorophenyl)sulfamoyl]-1-cyclohexene-1-carboxylate] | 0.058
CCOC(=O)C1=CCCCC1S(=O)(=O)Nc1ccc(F)cc1 (stereo not shown) [Compound 12, ethyl 6-[N-(4-fluorophenyl)sulfamoyl)-1-cyclohexene-1-carboxylate] | 0.18
CCOC(=O)C1=CCCCC1S(=O)(=O)Nc1c(F)cccc1F (stereo not shown) [Compound 13, ethyl 6-[N-(2,6-difluorophenyl)sulfamoyl]-1-cyclohexene-1-carboxylate] | 0.46
CCOC(=O)C1=CCCCC1S(=O)(=O)Nc1cccc(F)c1F (stereo not shown) [Compound 14, ethyl 6-[N-(2,3-difluorophenyl)sulfamoyl]-1-cyclohexene-1-carboxylate] | 0.59
CCOC(=O)C1=CCCCC1S(=O)(=O)Nc1cc(F)ccc1F (stereo not shown) [Compound 15, ethyl 6-[N-(2,5-difluorophenyl)sulfamoyl]-1-cyclohexene-1-carboxylate] | 0.28
CCOC(=O)C1=CCCCC1S(=O)(=O)Nc1ccc(F)c(F)c1 (stereo not shown) [Compound 16, ethyl 6-[N-(3,4-difluorophenyl)sulfamoyl]-1-cyclohexene-1-carboxylate] | 0.18
CCOC(=O)C1=CCCCC1S(=O)(=O)Nc1cc(F)cc(F)c1 (stereo not shown) [Compound 17, ethyl 6-[N-(3,5-difluorophenyl)sulfamoyl]-1-cyclohexene-1-carboxylate] | 2.6

Further lines, results first:

IC50 [µM] | SMILES
4.4 | CCOC(=O)C1=C(S(=O)(=O)Nc2ccc(F)cc2)CCCC1 [Compound 18, ethyl 2-[N-(4-fluorophenyl)sulfamoyl)-1-cyclohexene-1-carboxylate]
2.4 | CCOC(=O)C1=CCCCC1S(=O)(=O)Nc1ccccc1C(=O)OCC (stereo not shown) [Compound 21, ethyl 6-[N-(2-ethoxycarbonylphenyl)sulfamoyl]-1-cyclohexene-1-carboxylate]
0.18 | COC(=O)C1=CCCCC1S(=O)(=O)Nc1ccc(F)cc1F (stereo not shown) [Compound 22, methyl 6-[N-(2,4-difluorophenyl)sulfamoyl]-1-cyclohexene-1-carboxylate]
0.027 | CCCOC(=O)C1=CCCCC1S(=O)(=O)Nc1ccc(F)cc1F (stereo not shown) [Compound 23, propyl 6-[N-(2,4-difluorophenyl)sulfamoyl]-1-cyclohexene-1-carboxylate]
0.78 | COC(=O)C1=CCCCC1S(=O)(=O)Nc1ccc(Cl)cc1F (stereo not shown) [Compound 24, methyl 6-[N-(4-chloro-2-fluorophenyl)sulfamoyl]-1-cyclohexene-1-carboxylate]
0.32 | CC(C)OC(=O)C1=CCCCC1S(=O)(=O)Nc1ccc(F)cc1F (stereo not shown) [Compound 25, isopropyl 6-[N-(2,4-difluorophenyl)sulfamoyl]-1-cyclohexene-1-carboxylate]
3.3 | CCOC(=O)C1=CCCCC1S(=O)(=O)Nc1ccccc1C(=O)OC (stereo not shown) [Compound 26, ethyl 6-[N-(2-methoxycarbonylphenyl)sulfamoyl]-1-cyclohexene-1-carboxylate]
0.25 | CCOC(=O)C1=CCCCC1S(=O)(=O)Nc1ccc(C)cc1F (stereo not shown) [Compound 27, ethyl 6-[N-(2-fluoro-4-methylphenyl)sulfamoyl]-1-cyclohexene-1-carboxylate]
0.029 | CCOC(=O)C1=CCCCC1S(=O)(=O)Nc1ccccc1Cl (stereo not shown) [Compound 28, ethyl 6-[N-(2-chlorophenyl)sulfamoyl]-1-cyclohexene-1-carboxylate]
0.0093 | CCOC(=O)C1=CCCCC1S(=O)(=O)Nc1ccc(F)cc1Cl (stereo not shown) [Compound 29, ethyl 6-[N-(2-chloro-4-fluorophenyl)sulfamoyl]-1-cyclohexene-1-carboxylate]
0.23 | CCOC(=O)C1=CCCCC1S(=O)(=O)Nc1ccc(F)c(F)c1F (stereo not shown) [Compound 31, ethyl 6-[N-(2,3,4-trifluorophenyl)sulfamoyl]-1-cyclohexene-1-carboxylate]
0.23 | CC(C)COC(=O)C1=CCCCC1S(=O)(=O)Nc1ccc(F)cc1F (stereo not shown) [Compound 32, isobutyl 6-[N-(2,4-difluorophenyl)sulfamoyl]-1-cyclohexene-1-carboxylate]
0.26 | CCCCOC(=O)C1=CCCCC1S(=O)(=O)Nc1ccc(F)cc1F (stereo not shown) [Compound 33, butyl 6-[N-(2,4-difluorophenyl)sulfamoyl]-1-cyclohexene-1-carboxylate]
0.35 | CCOC(=O)C1=CCCCC1S(=O)(=O)Nc1ccc(Br)cc1F (stereo not shown) [Compound 34, ethyl 6-[N-(4-bromo-2-fluorophenyl)sulfamoyl]-1-cyclohexene-1-carboxylate]
0.082 | CCOC(=O)C1=CCCCC1S(=O)(=O)Nc1ccc(Cl)cc1Cl (stereo not shown) [Compound 35, ethyl 6-[N-(2,4-dichlorophenyl)sulfamoyl]-1-cyclohexene-1-carboxylate]
0.041 | CCOC(=O)C1=CCCCC1S(=O)(=O)Nc1cccc(Cl)c1Cl (stereo not shown) [Compound 38, ethyl 6-[N-(2,3-dichlorophenyl)sulfamoyl]-1-cyclohexene-1-carboxylate]

same assay, conditions: Mus musculus; RAW264.7; LPS 5 ng/ml + interferon gamma 1 U/ml; nitrite ion in culture supernatant after overnight incubation

SMILES | IC50 [µM]
CCOC(=O)C1=CCCCC1S(=O)(=O)Nc1ccc([N+](=O)[O-])cc1 (stereo not shown) [Compound 5, ethyl 6-[N-(4-nitrophenyl)sulfamoyl]-1-cyclohexene-1-carboxylate] | 3.7
CCOC(=O)C1=CCCCC1S(=O)(=O)Nc1ccc(Cl)cc1 (stereo not shown) [Compound 30, ethyl 6-[N-(4-chlorophenyl)sulfamoyl]-1-cyclohexene-1-carboxylate] | 0.54
CCOC(=O)C1=CCCCC1S(=O)(=O)Nc1cccc(Cl)c1 (stereo not shown) [Compound 37, ethyl 6-[N-(3-chlorophenyl)sulfamoyl]-1-cyclohexene-1carboxylate] | 0.13
CCOC(=O)C1=CCCCC1S(=O)(=O)Nc1ccccc1CC (stereo not shown) [Compound 39, ethyl 6-[N-(2-ethylphenyl)sulfamoyl]-1-cyclohexene-1-carboxylate] | 0.32

same assay, conditions: RAW264.7; LPS 5 ng/ml + interferon gamma 1 U/ml; nitrite ion in culture supernatant after overnight incubation

IC50 [µM] | SMILES
2 | CCOC(=O)C1=CCCCC1S(=O)(=O)Nc1ccc(F)cc1F (stereo not shown) [Compound 19, 1-ethyl 6-[N-(2,4-difluorophenyl)sulfamoyl]-1-cyclohexene-1-carboxylate]
